“And” between values parts separate entries of the source, which are not always exact repeats. Identical values can stand only once. Like-named read-outs stand apart in the source and are kept apart here.
Assays:
[1] = target: PDGFRα (Homo sapiens (Human), UniProt P16234); assay: PDGFRα kinase enzyme assay (Promega PDGFRα Kinase Enzyme System, ADP-Glo); assay type: biochemical; details: 150 uM ATP
How it was run: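 Purified PDGFRα protein (20 ng) reacted with test compound per the Promega kinase system protocol. ADP formed was measured by ADP-Glo luminescence against a standard curve, giving IC50.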

[2] = test system: GPR17+ cells (newly differentiated oligodendrocytes); assay: In vivo OPC differentiation, GPR17+ cells in brain; details: for fold induction at 3 mg/kg / fold induction at 30 mg/kg / fold induction at 3.3 mg/kg / fold induction at 10 mg/kg: Mus musculus, po, 24 h, read-out: GPR17 Fold Induction (Over Vehicle); for GPR17 Fold Induction (Over Vehicle): dose not assignable from Table 10, GPR17+ cells in brain, mice
Description: The ability of newly constructed compounds to drive OPC differentiation and myelination in vivo was tested. The ability of these compounds to drive OPC differentiation in vivo was tested using GPR17 as an indicator of newly differentiated oligodendrocytes.
Compounds were delivered PO or IP either QD or BID. Mice were dosed once, transiently, or continuously through the treatment period, which ranged from 1-3 days.
Mice were euthanized by isoflurane exposure and transcardially perfused with 14 mL of PBS (Sigma Cat #P4417-50TAB) followed by 22 mL of 3.2% paraformaldehyde in PBS. The brains were removed and postfixed for a minimum of 24 hours in 20 mL of 3.2% paraformaldehyde.
50-micron floating sections were cut using a Leica VT1200S vibratome. Every 24th section, extending through the antero-posterior extent of the brain, was stained. The selected brain sections were washed three times in PBS for 3 minutes each. The floating sections were incubated in the primary antibodies (see Table 10, below) diluted in blocking solution overnight at room temperature on a shaker. […] The next day, the sections were again washed three times in PBS for 3 minutes each and then incubated in the secondary antibodies diluted in blocking solution for 2 hours at room temperature on a shaker. After incubation, the sections were washed three times in PBS for 3 minutes each and mounted on a slide to be imaged using the Olympus Slide Scanner VS200.
The images were analyzed using a custom protocol developed using Visiopharm software to count GPR17+ cells. Cells were considered GPR17+ if they contained an Olig2 positive nucleus, and intense GPR 17 staining that filled their processes. Statistical analysis was done using one-way ANOVA with multiple comparison in GraphPad Prism software.

[3] = test system: Oligodendrocyte progenitor cells (OPCs); assay: In vitro OPC differentiation assay, MBP expression (immunocytochemistry); details: 72 hours of treatment; fold change over vehicle
[4] = test system: Oligodendrocyte progenitor cells (OPCs); assay: In vitro OPC differentiation assay, GPR17 expression (immunocytochemistry); details: 72 hours, fold change over vehicle; for GPR17 Fold Induction (Over Vehicle; 3 μM): 3 μM (10× concentration, final 0.3 μM); for GPR17 Fold Induction (Over Vehicle; 5 μM): 5 μM (10× concentration, final 0.5 μM)
[5] = 11-point dose response, 10,000 nM to 0.169 nM, BLQ = below limit of quantitation, read-out: IC50 Values on PDGFRα Kinase Inhibition, IC50
[6] = 11-point dose response, 10,000 nM to 0.169 nM, BLQ = below limit of quantitation
[7] = 20 ng purified PDGFRα, Poly (Glu4Tyr1) substrate, two hours, 11-point dose response, read-out: IC50 Values on PDGFRα Kinase Inhibition

Sequence of PDGFRα (P16234 24-1089): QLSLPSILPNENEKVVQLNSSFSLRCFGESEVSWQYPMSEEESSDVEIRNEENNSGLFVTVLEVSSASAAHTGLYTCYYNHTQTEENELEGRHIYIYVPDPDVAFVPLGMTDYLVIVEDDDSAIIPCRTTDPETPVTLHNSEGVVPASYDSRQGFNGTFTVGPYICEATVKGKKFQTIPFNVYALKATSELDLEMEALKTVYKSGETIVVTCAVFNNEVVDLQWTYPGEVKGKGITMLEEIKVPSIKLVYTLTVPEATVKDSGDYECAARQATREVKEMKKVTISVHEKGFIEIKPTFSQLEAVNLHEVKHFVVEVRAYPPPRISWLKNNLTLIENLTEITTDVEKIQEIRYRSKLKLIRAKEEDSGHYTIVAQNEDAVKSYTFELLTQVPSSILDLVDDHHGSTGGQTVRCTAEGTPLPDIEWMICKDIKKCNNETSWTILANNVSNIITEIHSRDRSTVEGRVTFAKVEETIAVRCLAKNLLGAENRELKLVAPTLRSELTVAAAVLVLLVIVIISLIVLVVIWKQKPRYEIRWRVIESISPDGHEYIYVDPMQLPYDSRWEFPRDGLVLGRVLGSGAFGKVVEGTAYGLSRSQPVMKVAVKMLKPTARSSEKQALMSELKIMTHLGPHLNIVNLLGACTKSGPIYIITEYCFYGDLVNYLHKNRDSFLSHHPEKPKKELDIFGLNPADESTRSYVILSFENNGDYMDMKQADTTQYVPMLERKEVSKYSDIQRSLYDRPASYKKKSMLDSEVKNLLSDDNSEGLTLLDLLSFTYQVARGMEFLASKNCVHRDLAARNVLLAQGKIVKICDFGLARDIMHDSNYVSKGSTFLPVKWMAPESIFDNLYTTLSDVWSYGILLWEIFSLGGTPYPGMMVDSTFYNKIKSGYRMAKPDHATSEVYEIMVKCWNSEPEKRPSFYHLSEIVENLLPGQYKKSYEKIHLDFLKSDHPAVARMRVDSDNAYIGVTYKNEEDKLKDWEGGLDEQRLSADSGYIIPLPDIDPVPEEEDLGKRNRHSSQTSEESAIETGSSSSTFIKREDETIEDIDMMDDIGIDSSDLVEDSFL

Row | IC50 [1, 5] | MBP Fold Induction (Over vehicle) [3] | GPR17 Fold Induction (Over Vehicle; 3 μM) [4] | GPR17 Fold Induction (Over Vehicle) [2] | IC50 Values on PDGFRα Kinase Inhibition, IC50 (nM) [1, 6] | GPR17 Fold Induction (Over Vehicle; 5 μM) [4] | IC50 [1, 7] | Structure (SMILES) | fold induction at 3 mg/kg [2] | fold induction at 30 mg/kg [2] | fold induction at 3.3 mg/kg [2] | fold induction at 10 mg/kg [2]
1 | 38.4 nM | 7.73 | 6.09 | – | – | – | – | Cn1cc(-c2ccc3c(N4CCN(C(=O)O[C@@H](c5ccccc5)C(F)(F)F)CC4)cnn3c2)cn1 [Compound 64, (1S)-2,2,2-trifluoro-1-phenylethyl 4-[6-(1-methyl-1H-pyrazol-4-yl)pyrazolo[1,5-a]pyridin-3-yl]piperazine-1-carboxylate] | 2.13 | – | – | –
2 | 145 nM | 18.49 | 9.00 | – | – | – | – | C[C@@H](OC(=O)N1CCN(c2cnn3cc(-c4cnn(C)c4)ccc23)CC1)c1ccc2ccccc2c1 [Compound 312, (1R)-1-(2-naphthyl)ethyl 4-[6-(1-methyl-1H-pyrazol-4-yl)pyrazolo[1,5-a]pyridin-3-yl]piperazine-1-carboxylate] | 1.53 | – | – | –
3 | 4010 nM | 9.82 | 5.25 | – | – | 2.94 | – | Cn1cc(-c2ccc3c(N4CCN(C(=O)CCc5ccccc5)CC4)cnn3c2)cn1 [Compound 1, 6-(1-methyl-1H-pyrazol-4-yl)-3-[4-(3-phenylpropanoyl)piperazin-1-yl]pyrazolo[1,5-a]pyridine] | – | – | 1.06 | –
4 | 377 nM | 11.66 | 6.26 | – | – | – | – | C[C@@H](OC(=O)N1CCN(c2cnn3cc(-c4cnn(C)c4)ccc23)CC1)c1ccccn1 [Compound 260, (1R)-1-pyridin-2-ylethyl 4-[6-(1-methyl-1H-pyrazol-4-yl)pyrazolo[1,5-a]pyridin-3-yl]piperazine-1-carboxylate] | – | – | – | 2.79
5 | 300 nM | 3.72 | 7.31 | – | – | – | – | Cn1cc(-c2ccc3c(N4CCN(c5nc(Cc6ccccc6)co5)CC4)cnn3c2)cn1 [Compound 58, 3-[4-(4-benzyl-1,3-oxazol-2-yl)piperazin-1-yl]-6-(1-methyl-1H-pyrazol-4-yl)pyrazolo[1,5-a]pyridine] | 5.5 | – | – | –
6 | 2420 nM | 2.1 | 7.38 | – | – | 4.40 and 4.45 | – | Cn1cc(-c2cnc3c(N4CCN(c5ncc(Cc6ccccc6)cn5)CC4)cnn3c2)cn1 [Compound 7, 3-[4-(5-benzylpyrimidin-2-yl)piperazin-1-yl]-6-(1-methyl-1H-pyrazol-4-yl)pyrazolo[1,5-a]pyrimidine] | – | – | – | 12.9
7 | 249 nM | 1.41 | 5.60 | 1.41 fold | – | – | – | Cc1cccc(Cc2cnc(N3CCN(c4cnn5cc(-c6cnn(C)c6)ccc45)CC3)nc2)c1 [Compound 53, 3-{4-[5-(3-methylbenzyl)pyrimidin-2-yl]piperazin-1-yl}-6-(1-methyl-1H-pyrazol-4-yl)pyrazolo[1,5-a]pyridine] | 1.22 | 4.64 | – | –
8 | 803 nM | 16.36 | 9.21 | – | – | – | – | CC(c1ccc(F)cc1)c1cnc(N2CCN(c3cnn4cc(-c5cnn(C)c5)ccc34)CC2)nc1 (stereo not drawn) [Compound 258, 3-(4-(5-(1-(4-fluorophenyl)ethyl)pyrimidin-2-yl)piperazin-1-yl)-6-(1-methyl-1H-pyrazol-4-yl)pyrazolo[1,5-a]pyridine] | 2.82 | – | – | –
9 | 421 nM | 10.24 | 8.42 | – | – | 4.31 | < 1000 nM | Cn1cc(-c2ccc3c(N4CCN(C(=O)OCc5ccccc5)CC4)cnn3c2)cn1 [Compound 13, Benzyl 4-[6-(1-methyl-1H-pyrazol-4-yl)pyrazolo[1,5-a]pyridin-3-yl]piperazine-1-carboxylate] | – | – | 1.85 | –

More lines, now with the values behind:

Row | Structure (SMILES) | IC50 [1, 5] | MBP Fold Induction (Over vehicle) [3] | GPR17 Fold Induction (Over Vehicle; 3 μM) [4] | GPR17 Fold Induction (Over Vehicle) [2] | IC50 Values on PDGFRα Kinase Inhibition, IC50 (nM) [1, 6] | GPR17 Fold Induction (Over Vehicle; 5 μM) [4] | IC50 [1, 7] | fold induction at 3 mg/kg [2] | fold induction at 30 mg/kg [2] | fold induction at 3.3 mg/kg [2] | fold induction at 10 mg/kg [2]
10 | CCC(CC)Cc1cnc(N2CCN(c3cnn4cc(-c5cnn(C)c5)ccc34)CC2)nc1 [Compound 153, 3-(4-(5-(2-ethylbutyl)pyrimidin-2-yl)piperazin-1-yl)-6-(1-methyl-1H-pyrazol-4-yl)pyrazolo[1,5-a]pyridine] | 1370 nM | 4.86 | 6.37 | – | – | – | – | 1.58 | – | – | –
11 | Cn1cc(-c2ccc3c(N4CCN(c5ncc(C(C)(O)c6ccc(F)cc6)cn5)CC4)cnn3c2)cn1 (stereo not drawn) [Compound 46, 1-(4-fluorophenyl)-1-(2-{4-[6-(1-methyl-1H-pyrazol-4-yl)pyrazolo[1,5-a]pyridin-3-yl]piperazin-1-yl}pyrimidin-5-yl)ethanol] | 122 nM | 3.97 | 6.86 | 11.15 fold | – | – | – | – | – | – | –
12 | C[C@@H](OC(=O)N1CCN(c2cnn3cc(-c4cnn(C)c4)ccc23)CC1)c1ccc(C(F)(F)F)cc1 [Compound 313, (1R)-1-[4-(trifluoromethyl)phenyl]ethyl 4-[6-(1-methyl-1H-pyrazol-4-yl)pyrazolo[1,5-a]pyridin-3-yl]piperazine-1-carboxylate] | – | 116.12 | 10.56 | – | BLQ | – | – | 10.5 | – | – | –
13 | Cn1cc(-c2ccn3c(N4CCN(c5ncc(Cc6ccccc6)cn5)CC4)cnc3c2)cn1 [Compound 23, 3-[4-(5-benzylpyrimidin-2-yl)piperazin-1-yl]-7-(1-methyl-1H-pyrazol-4-yl)imidazo[1,2-a]pyridine] | 424 nM | 2.1 | 9.53 | – | – | 3.98 | – | – | 14.8 | – | –
14 | CC(OC(=O)N1CCN(c2cnn3cc(-c4cnn(C)c4)ccc23)CC1)c1ccc(Cl)cc1 (stereo not drawn) [Compound 265, 1-(4-chlorophenyl)ethyl 4-(6-(1-methyl-1H-pyrazol-4-yl)pyrazolo[1,5-a]pyridin-3-yl)piperazine-1-carboxylate] | – | 20.78 | 7.72 | – | BLQ | – | – | 7.92 | – | – | –
15 | C[C@@H](NC(=O)N1CCN(c2cnn3cc(-c4cnn(C)c4)ccc23)CC1)c1ccc(Cl)cc1 [Compound 274, N-[(1R)-1-(4-chlorophenyl)ethyl]-4-[6-(1-methyl-1H-pyrazol-4-yl)pyrazolo[1,5-a]pyridin-3-yl]piperazine-1-carboxamide] | 49 nM | 24.95 | 5.01 and 9.78 | – | – | – | – | 6.67 | – | – | –
16 | Cn1cc(-c2ccc3c(N4CCN(C(=O)OCC(C)(C)C)CC4)cnn3c2)cn1 [Compound 3, 2,2-dimethylpropyl 4-[6-(1-methyl-1H-pyrazol-4-yl)pyrazolo[1,5-a]pyridin-3-yl]piperazine-1-carboxylate] | 883 nM | 1.56 | 4.12 | – | – | 3.69 | < 1000 nM | – | – | 1.45 | –
17 | Cn1cc(-c2ccc3c(N4CCN(C(=O)N5CCC[C@@H]5c5ccc(Cl)cc5)CC4)cnn3c2)cn1 [Compound 277, 3-(4-{[(2R)-2-(4-chlorophenyl)pyrrolidin-1-yl]carbonyl}piperazin-1-yl)-6-(1-methyl-1H-pyrazol-4-yl)pyrazolo[1,5-a]pyridine] | 208 nM | 8.37 | 5.36 | – | – | – | – | 0.96 | – | – | –
18 | Cn1cc(-c2ccc3c(N4CCN(C(=O)OC(C)(C)C)CC4)cnn3c2)cn1 [Compound 11, tert-butyl 4-[6-(1-methyl-1H-pyrazol-4-yl)pyrazolo[1,5-a]pyridin-3-yl]piperazine-1-carboxylate] | 326 nM | 1.93 | 10.21 | – | – | 4.22 | < 1000 nM | – | – | 2.14 | 9.93
19 | Cn1cc(-c2ccc3c(N4CCN(C(=O)OCc5cccc(C#N)c5)CC4)cnn3c2)cn1 [Compound 272, 3-cyanobenzyl 4-[6-(1-methyl-1H-pyrazol-4-yl)pyrazolo[1,5-a]pyridin-3-yl]piperazine-1-carboxylate] | 865 nM | 40.13 | 6.11 | – | – | – | – | 2.47 | – | – | 5.93
20 | Cn1cc(-c2ccc3c(N4CCN(c5ncc(C(O)C6CCCCC6)cn5)CC4)cnn3c2)cn1 (stereo not drawn) [Compound 61, cyclohexyl(2-{4-[6-(1-methyl-1H-pyrazol-4-yl)pyrazolo[1,5-a]pyridin-3-yl]piperazin-1-yl}pyrimidin-5-yl)methanol] | 5.26 nM | 9.88 | 10.09 | – | – | – | – | 2.36 | – | – | –
